Test results published in paper PMC10570366, “Molecular mechanism of decision-making in glycosaminoglycan biosynthesis” (Nature Communications, 2023).

What was measured:
Format in all cases: biochemical
EXT1/EXT2 = target: T1, EXT1/EXT2 (Homo sapiens, UniProt Q16394+Q93063); test: HPLC and MS of glycopeptide product; conditions: acceptor GlcNAc-TetraP-BETA; Mn2+; pH 7.5
T1 construct: soluble lumenal regions, FLAG-EXT1/His-EXT2 heterodimer co-expressed in Expi293F
T1 sequence (Q16394 29-746 limits assumed): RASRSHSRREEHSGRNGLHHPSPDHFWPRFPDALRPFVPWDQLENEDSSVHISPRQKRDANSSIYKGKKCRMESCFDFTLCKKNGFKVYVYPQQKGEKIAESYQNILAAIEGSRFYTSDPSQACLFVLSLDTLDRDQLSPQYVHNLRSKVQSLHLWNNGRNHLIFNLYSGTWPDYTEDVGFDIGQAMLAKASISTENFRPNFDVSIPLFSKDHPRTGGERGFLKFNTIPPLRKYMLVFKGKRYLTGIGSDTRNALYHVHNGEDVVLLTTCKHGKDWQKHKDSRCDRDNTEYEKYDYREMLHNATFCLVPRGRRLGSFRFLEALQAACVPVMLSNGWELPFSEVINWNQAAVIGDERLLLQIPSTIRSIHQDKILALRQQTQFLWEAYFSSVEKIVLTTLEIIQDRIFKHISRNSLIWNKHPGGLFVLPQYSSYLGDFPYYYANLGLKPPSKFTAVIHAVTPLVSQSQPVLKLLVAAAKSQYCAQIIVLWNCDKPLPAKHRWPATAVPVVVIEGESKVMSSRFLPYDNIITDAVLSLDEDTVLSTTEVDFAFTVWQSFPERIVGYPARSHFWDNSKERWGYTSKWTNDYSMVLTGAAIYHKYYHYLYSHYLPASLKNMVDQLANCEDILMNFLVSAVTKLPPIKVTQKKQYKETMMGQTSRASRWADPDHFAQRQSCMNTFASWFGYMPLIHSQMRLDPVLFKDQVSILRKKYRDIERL
T1 sequence (Q93063 47-718 limits assumed): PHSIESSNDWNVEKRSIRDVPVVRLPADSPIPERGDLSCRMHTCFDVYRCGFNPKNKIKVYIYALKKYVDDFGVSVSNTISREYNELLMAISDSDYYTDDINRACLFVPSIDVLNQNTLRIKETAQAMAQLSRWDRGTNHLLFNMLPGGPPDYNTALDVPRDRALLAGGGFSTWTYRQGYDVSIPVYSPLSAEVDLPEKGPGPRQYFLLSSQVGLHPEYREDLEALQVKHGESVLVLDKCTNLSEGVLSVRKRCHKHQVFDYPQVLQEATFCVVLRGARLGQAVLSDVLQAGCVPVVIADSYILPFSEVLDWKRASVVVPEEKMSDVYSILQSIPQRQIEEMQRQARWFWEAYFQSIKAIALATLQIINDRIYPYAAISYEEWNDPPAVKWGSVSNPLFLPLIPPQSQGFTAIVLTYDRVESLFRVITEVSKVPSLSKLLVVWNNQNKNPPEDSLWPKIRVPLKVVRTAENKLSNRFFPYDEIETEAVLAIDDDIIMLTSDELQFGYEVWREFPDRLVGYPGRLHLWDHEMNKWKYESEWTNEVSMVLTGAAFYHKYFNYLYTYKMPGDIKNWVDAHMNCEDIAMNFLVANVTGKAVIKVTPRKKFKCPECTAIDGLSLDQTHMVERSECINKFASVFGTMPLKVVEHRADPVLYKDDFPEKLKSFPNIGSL

B3GAT3 = target: T2, B3GAT3 (Homo sapiens, UniProt O94766); test: one-pot enzymatic synthesis, HPLC and MS; conditions: acceptor Gal-Gal-Xyl-BKN; 25 mM Mn2+; pH 7.5; 30 °C
T2 sequence (O94766 29-335 limits assumed): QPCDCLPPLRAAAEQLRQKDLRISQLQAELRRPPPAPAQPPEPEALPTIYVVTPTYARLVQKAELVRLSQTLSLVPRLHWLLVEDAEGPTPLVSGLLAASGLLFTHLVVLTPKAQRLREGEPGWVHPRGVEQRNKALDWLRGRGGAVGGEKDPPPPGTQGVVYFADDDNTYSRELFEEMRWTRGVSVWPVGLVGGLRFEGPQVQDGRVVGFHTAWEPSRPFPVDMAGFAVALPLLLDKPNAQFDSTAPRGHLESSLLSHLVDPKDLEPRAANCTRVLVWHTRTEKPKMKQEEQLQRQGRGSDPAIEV

MBP-CSGALNACT1 = target: T3, MBP-CSGALNACT1 (Homo sapiens, UniProt Q8TDX6); test: UDP-Glo; conditions: acceptor TetraP-peptides; 5 mM Mn2+; pH 7.5
T3 sequence (Q8TDX6 36-532 limits assumed): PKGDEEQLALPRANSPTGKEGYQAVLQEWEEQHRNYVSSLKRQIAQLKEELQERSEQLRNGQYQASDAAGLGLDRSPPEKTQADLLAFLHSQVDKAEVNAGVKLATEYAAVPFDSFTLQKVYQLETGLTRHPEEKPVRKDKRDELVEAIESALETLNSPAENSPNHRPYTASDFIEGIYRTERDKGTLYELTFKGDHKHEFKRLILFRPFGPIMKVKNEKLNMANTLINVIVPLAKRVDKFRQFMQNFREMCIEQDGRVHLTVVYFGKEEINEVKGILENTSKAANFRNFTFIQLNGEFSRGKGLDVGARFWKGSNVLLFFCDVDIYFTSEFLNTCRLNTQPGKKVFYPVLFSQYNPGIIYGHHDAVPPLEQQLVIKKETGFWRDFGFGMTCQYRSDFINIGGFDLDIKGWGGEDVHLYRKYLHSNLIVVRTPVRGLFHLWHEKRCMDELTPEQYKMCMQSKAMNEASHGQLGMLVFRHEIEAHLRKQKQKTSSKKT

CHSY3/CHPF = target: T4, CHSY3/CHPF (Homo sapiens, UniProt Q70JA7); test: HPLC and MS of glycopeptide product; conditions: acceptor TetraP-BETA; 5 mM Mn2+; pH 7.5; 30 °C
T4 construct: soluble lumenal regions, His6 tags, obligate heterodimer co-expressed in Expi293F
T4 sequence (Q70JA7 29-882 limits assumed): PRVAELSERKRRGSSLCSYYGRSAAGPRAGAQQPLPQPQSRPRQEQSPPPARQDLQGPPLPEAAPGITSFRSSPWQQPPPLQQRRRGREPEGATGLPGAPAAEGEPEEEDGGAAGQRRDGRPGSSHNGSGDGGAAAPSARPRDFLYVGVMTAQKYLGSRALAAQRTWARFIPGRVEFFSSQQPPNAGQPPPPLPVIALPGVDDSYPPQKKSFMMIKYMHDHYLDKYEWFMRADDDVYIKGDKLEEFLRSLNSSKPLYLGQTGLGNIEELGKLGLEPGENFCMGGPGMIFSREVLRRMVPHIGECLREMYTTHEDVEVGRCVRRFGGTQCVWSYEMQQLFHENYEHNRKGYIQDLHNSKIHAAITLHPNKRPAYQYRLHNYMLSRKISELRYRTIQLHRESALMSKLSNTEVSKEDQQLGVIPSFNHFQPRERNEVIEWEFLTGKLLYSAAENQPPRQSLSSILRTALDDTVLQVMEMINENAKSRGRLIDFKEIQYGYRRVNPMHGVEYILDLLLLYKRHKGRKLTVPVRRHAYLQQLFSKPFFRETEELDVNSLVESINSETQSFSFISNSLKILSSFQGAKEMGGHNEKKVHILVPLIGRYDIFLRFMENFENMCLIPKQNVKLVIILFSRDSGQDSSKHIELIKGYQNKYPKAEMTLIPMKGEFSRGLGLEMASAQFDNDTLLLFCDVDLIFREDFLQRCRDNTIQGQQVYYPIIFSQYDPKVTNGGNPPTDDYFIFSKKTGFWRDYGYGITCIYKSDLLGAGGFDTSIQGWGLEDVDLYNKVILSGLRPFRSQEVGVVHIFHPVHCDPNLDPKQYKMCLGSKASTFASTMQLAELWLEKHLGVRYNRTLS
T4 sequence (Q8IZ52 35-775 partner): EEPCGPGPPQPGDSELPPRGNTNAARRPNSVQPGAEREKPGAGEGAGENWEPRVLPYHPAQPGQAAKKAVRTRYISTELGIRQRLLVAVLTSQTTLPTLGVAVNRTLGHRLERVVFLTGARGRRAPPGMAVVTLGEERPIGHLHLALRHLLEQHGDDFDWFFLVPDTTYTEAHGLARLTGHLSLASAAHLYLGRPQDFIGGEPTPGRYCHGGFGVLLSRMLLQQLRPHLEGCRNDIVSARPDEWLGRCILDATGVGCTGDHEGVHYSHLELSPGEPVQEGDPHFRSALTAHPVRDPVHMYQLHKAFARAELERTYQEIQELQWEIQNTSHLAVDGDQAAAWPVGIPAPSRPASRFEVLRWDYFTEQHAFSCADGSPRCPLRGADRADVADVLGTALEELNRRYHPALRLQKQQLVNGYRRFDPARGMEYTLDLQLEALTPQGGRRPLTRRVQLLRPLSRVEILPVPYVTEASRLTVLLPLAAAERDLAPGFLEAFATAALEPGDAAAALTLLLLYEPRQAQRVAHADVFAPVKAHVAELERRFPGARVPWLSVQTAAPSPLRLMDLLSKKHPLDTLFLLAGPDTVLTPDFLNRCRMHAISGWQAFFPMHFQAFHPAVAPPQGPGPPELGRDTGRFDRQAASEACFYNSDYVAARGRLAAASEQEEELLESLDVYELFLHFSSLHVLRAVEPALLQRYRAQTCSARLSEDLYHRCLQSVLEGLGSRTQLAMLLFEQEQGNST

## O=C(O)[C@H]1O[C@H](OP(=O)(O)OP(=O)(O)OC[C@H]2O[C@@H](n3ccc(=O)[nH]c3=O)[C@H](O)[C@@H]2O)[C@H](O)[C@@H](O)[C@@H]1O [UDP-GlcA]
EXT1/EXT2
  HPLC and MS of glycopeptide product: both enzymes are able to catalyse the addition of a sixth sugar, forming GlcA-GlcNAc-TetraP-BETA
B3GAT3
  one-pot enzymatic synthesis, HPLC and MS: all four GTs but without FAM20B gave the unphosphorylated linker glycopeptide, GlcA-Gal-Gal-Xyl-BKN (Tetra-BKN)

## CC(=O)N[C@H]1[C@@H](OP(=O)(O)OP(=O)(O)OC[C@H]2O[C@@H](n3ccc(=O)[nH]c3=O)[C@H](O)[C@@H]2O)O[C@H](CO)[C@H](O)[C@@H]1O [UDP-GalNAc]
MBP-CSGALNACT1
  UDP-Glo: A similar behaviour was confirmed for CSGALNACT1
CHSY3/CHPF
  HPLC and MS of glycopeptide product: CHSY3/CHPF was able to transfer GalNAc onto TetraP-BETA
